This is an account of results in patent US6146859A, “Facile synthesis of L-homophenylalanine by equilibrium shift enzymatic reaction using engineered tyrosine aminotransferase” (Academia Sinica, priority 1999, dated 2000).

Values joined by “and” are separate entries in the source; they are usually repeats but may differ in a detail not shown here. Identical values can stand only once.

Data set [1] addresses T1, tyrosine aminotransferase (Escherichia coli, UniProt P04693).
T1 construct: made in house; host or cells: E. coli
Nature of the data set: Equilibrium constants of the tyrosine aminotransferase-catalyzed reaction with 2-oxo-4-phenylbutyric acid and various amino acids. To be noted: 2-oxo-4-phenylbutyric acid and the amino acid as substrates. The class given is biochemical, E. coli. As for the experimental part: (§1) The HPLC chromatography is preferably conducted under the following conditions: column, 5C18; flow rate, 1 ml/min; gradient elution from an initial solution of 10% of eluent B+90% of eluent A to a final solution of 100% of eluent B in 20 minutes, wherein eluent A contains 5% ACN in 0.1% TFA and eluent B contains 95% ACN in 0.1% TFA; detector UV 214 nm. Initially, only peaks representing the starting materials L-glutamic acid having a retention time of 2.70 min and compound 1 having a retention time of 7.49 min appear in the HPLC graph as shown in the lower panel of FIG. 3. After adding the tyrosine aminotransferase, the areas of peaks corresponding to compound 1 and glutamic acid are decreased gradually, whereas areas of peaks corresponding to compound 2 having a retention time of 5.24 min and α-ketoglutamic acid having a retention time of 3.49 min are increased, as shown in the upper panel of FIG. 3. When the area of the peak representing compound 1 is reduced to one-fifth of the initial peak area, white precipitates appear in the reaction solution, while the peak area of compound 2 becomes stable and stays constant until the peak areas of compound 1 and glutamic acid are reduced to about baseline.

Data set [2] addresses T2, genetically engineered tyrosine aminotransferase (Escherichia coli, UniProt P04693).
T2 construct: made in house; host or cells: E. coli
Nature of the data set: Tyrosine aminotransferase-catalyzed amino transfer to 2-oxo-4-phenylbutyric acid with various amino acids as amino donors. The data set is classed as biochemical, E. coli. Particulars: amino acid 0.20 mmol, 2-oxo-4-phenylbutyric acid 0.10 mmol, enzyme 1 unit, 5 mL Tris-HCl 20 mM pH 8.5, 37° C., 5 min; for initial rate: increase of homophenylalanine by HPLC. Also noted: initial rate: unit not given here. The source says: Production of tyrosine aminotransferase: Genetically engineered tyrosine aminotransferase is preferably produced by overexpressing the gene product in E. coli according to the method described by Kuramitsu et al. in Biochem, Biophys. Res. Commu., 1989, 133:134, the contents of which are herein incorporated by references in their entirety. One unit of enzyme activity was defined as the activity that produces 1 μmol of product per minute.
The enzymatic activities of the genetically engineered tyrosine aminotransferase as described above were tested using various amino acids as amino donors and the results are shown in Table I. Each enzyme-catalyzed reaction was carried out in a mixture (5 mL) of Tris-HCl buffer (20 mM, pH 8.5) containing the tested amino acid (0.20 mmol) and 2-oxo-4-phenylbutyric acid (0.10 mmol) and the enzyme (1 unit) at 37° C. for 5 min. The initial rate was measured by calculating the increase of homophenylalanine concentration in each reaction based on HPLC analysis.

Data set [3] is classed as physicochemical. Particulars: pH 8.5. The method, then:
Synthesis of L-homophenylalanine: The synthesis is conducted preferably in a reaction mixture (5 ml) containing Tris-HCl buffer (50 mM, pH 8.5), compound 1 (10 mmole, the final concentration of compound 1 is about 2 M), L-Glu (10 mM), pyridoxal 5-phosphate (20 mM) at 37° C. The reaction is initiated by adding the tyrosine aminotransferase (5 units) to the reaction solution and monitored by HPLC.
as §1, with “When the area of the peak representing compound 1 is reduced to one-fifth of the initial peak area, white precipitates appear in the reaction solution, while the peak area of compound 2 becomes stable and stays constant until the peak areas of compound 1 and glutamic acid are reduced to about baseline.” left out

For data set [4], the system named is microbial aminotransferase. Particulars: at more than 0.2M; cited from earlier work.

T1 sequence (P04693 whole entry): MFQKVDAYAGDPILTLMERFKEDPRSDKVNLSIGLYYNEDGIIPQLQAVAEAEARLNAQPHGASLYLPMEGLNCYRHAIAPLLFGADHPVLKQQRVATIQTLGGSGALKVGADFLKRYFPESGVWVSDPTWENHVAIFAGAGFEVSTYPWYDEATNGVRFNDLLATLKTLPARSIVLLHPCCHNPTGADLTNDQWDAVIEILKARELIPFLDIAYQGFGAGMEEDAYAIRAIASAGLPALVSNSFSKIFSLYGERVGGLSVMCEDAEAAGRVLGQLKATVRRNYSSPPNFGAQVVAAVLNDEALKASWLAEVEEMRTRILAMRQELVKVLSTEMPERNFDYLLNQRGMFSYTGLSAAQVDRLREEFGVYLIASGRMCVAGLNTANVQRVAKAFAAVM
T2 sequence (P04693 whole entry, change not shown): as the sequence (P04693 whole entry) above

`N[C@@H](CCC(=O)O)C(=O)O` [L-Glu, glutamic acid]: the “Equilibrium Constant (Keq)” value in data set [1] was determined as 0.345. Also, in data set [2], the turnover rate was 0.539 mM/min.unit and 0.54 mM/min.unit; the initial rate was 2.96.

In data set [2], `CSCC[C@H](N)C(=O)O` [L-Met, methionine] registered a turnover rate of 0.268 mM/min.unit and an initial rate of 1.47.

On to `N[C@@H](CC(=O)O)C(=O)O` [L-Asp, aspartic acid], for which, in data set [1], the “Equilibrium Constant (Keq)” value worked out at 0.187. In addition, in data set [2], the turnover rate was determined as 0.372 mM/min.unit and the initial rate was 2.04.

For the compound `N[C@@H](CCc1ccccc1)C(=O)O` [compound 2, L-homophenylalanine], the “solubility in the reaction solution” value in data set [3] is recorded as “practically insoluble”.

For `N[C@@H](Cc1c[nH]cn1)C(=O)O` [L-His, histidine], in data set [2], the turnover rate stood at 0.089 mM/min.unit and the initial rate worked out at 0.49.

For the compound `CC[C@H](C)[C@H](N)C(=O)O` [L-Ile, isoleucine], in data set [2], the turnover rate is on record as 0.005 mM/min.unit and the initial rate came out at 0.03.

With `N[C@@H](CO)C(=O)O` [L-Ser, serine], in data set [2], the turnover rate is given as 0.002 mM/min.unit and the initial rate came to 0.01.

As to `CC(C)C[C@H](N)C(=O)O` [L-Leu, leucine], in data set [2], the turnover rate is 0.106 mM/min.unit and the initial rate is on record as 0.58.

`NCCCC[C@H](N)C(=O)O` [L-Lys, lysine]: in data set [2], the turnover rate is given as 0.046 mM/min.unit and the initial rate stood at 0.25.

For `N[C@@H](Cc1ccccc1)C(=O)O` [L-Phe, phenylalanine], in data set [1], the “Equilibrium Constant (Keq)” value came to 0.466. Also, in data set [2], the turnover rate was 0.605 mM/min.unit and 0.61 mM/min.unit; the initial rate stood at 3.32.

For `O=C(O)C(=O)CCc1ccccc1` [2-oxo-4-phenylbutyric acid], in data set [4], the “inhibition of aminotransferase activity and conversion yield” value is given as “markedly inhibited”.

As for `CC(C)[C@H](N)C(=O)O` [L-Val, valine], in data set [2], the turnover rate came to 0.058 mM/min.unit and the initial rate worked out at 0.32.

Take `N[C@@H](Cc1ccc(O)cc1)C(=O)O` [L-Tyr, tyrosine]: in data set [1], the “Equilibrium Constant (Keq)” value is on record as 0.727. Further, in data set [2], the turnover rate was 0.619 mM/min.unit and 0.62 mM/min.unit; the initial rate came to 3.43.

On to `C[C@@H](O)[C@H](N)C(=O)O` [L-Thr, threonine], for which, in data set [2], the turnover rate is reported as 0.009 mM/min.unit and the initial rate came to 0.05.

As to `C[C@H](N)C(=O)O` [L-Ala, alanine], in data set [2], the turnover rate is listed as 0.042 mM/min.unit and the initial rate came to 0.23.

In data set [2], `NCC(=O)O` [L-Gly, glycine] came in with a turnover rate of 0.027 mM/min.unit and an initial rate of 0.15.
